System: cotton shoot initiation (cultivar Deltapine 50 hypocotyl explants)
Experiment: Dose response study: effect of aminoglycosides on cotton shoot initiation from hypocotyl explants on medium GA
Format: in vivo
Details: incorporated in medium GA, results after 1 month, kanamycin tested at 0-200 mg/l, geneticin at 0-20 mg/l
Text: Hypocotyl sections were placed horizontally on shoot initiation medium (GA). Explants were maintained for 6 weeks on this medium. Shoot primordia were visible on the acropetal ends of hypocotyl sections after 2 weeks. After 6 weeks, leaves were clearly visible. Shoot initiation has been observed in 7 commercial cultivars (Deltapine 50, Stoneville 474, Deltapine 5111, Tx 121, Suregrow 125, Fibermax 819, and Paymaster 1215) and 3 breeding lines, and the response ranged from 20-73% (percentage explants capable of initiating shoots per cultivar).
GA: semi-solid GMS plus an auxin like NAA (0.1-3.0 mg/l), a cytokinin like TDZ, or BA plus kinetin (0.1-2.5 mg/l) and 1-50 mg/l silver nitrate
The effect of the aminoglycosides kanamycin and geneticin on cotton shoot initiation were investigated. Kanamycin, at concentrations of 0.0, 50, 100, 150 and 200 mg/I, and geneticin at 0.0, 5.0, 10, 15 and 20 mg/l, were incorporated in medium GA. The experiment consisted of 3 replicate plates/treatment and 4 explants/replicate plates using the cultivar Deltapine 50. […] A geneticin concentration up to 20 mg/l was not inhibitory to shoot initiation.

Row | SMILES | concentration inhibitory to shoot initiation [mg/L]
1 | CN[C@@H]1[C@@H](O)[C@@H](O[C@@H]2[C@@H](O)[C@H](O[C@H]3O[C@H]([C@@H](C)O)[C@@H](O)[C@H](O)[C@H]3N)[C@@H](N)C[C@H]2N)OC[C@]1(C)O [geneticin] | > 20
2 | NC[C@H]1O[C@H](O[C@H]2[C@H](O)[C@@H](O[C@H]3O[C@H](CO)[C@@H](O)[C@H](N)[C@H]3O)[C@H](N)C[C@@H]2N)[C@H](O)[C@@H](O)[C@@H]1O [kanamycin] | 50

From US6479287B1, “Method for transformation of cotton and organogenic regeneration” (Mississippi State University, priority 2000, dated 2002)
